3 compounds from BindingDB's records for doi:10.1016/j.bmcl.2013.01.056 (Fudan University, 2013) can be followed below.

Molecules are shown by their SMILES.

Sequence of Signal transducer and activator of transcription 3 (P40763 whole entry): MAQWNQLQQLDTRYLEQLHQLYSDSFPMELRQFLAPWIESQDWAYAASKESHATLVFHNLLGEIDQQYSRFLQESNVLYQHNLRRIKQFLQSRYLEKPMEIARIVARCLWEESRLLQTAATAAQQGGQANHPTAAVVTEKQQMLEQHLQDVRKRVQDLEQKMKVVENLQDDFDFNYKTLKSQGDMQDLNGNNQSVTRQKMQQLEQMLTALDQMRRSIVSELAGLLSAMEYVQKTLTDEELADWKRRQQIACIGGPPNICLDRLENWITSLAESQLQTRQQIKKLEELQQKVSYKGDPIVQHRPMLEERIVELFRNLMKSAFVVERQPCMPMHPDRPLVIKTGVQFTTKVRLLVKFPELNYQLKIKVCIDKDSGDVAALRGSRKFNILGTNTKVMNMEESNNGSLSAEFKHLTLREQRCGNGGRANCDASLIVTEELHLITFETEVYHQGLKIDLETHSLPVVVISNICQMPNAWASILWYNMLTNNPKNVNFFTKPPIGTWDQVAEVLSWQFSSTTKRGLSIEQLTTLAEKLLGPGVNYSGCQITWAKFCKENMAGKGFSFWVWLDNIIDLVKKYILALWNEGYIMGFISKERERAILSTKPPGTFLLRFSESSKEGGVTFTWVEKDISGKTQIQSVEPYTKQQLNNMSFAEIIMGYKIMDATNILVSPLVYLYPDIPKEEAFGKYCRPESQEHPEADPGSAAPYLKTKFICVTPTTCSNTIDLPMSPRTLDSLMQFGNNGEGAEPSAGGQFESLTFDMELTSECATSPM

This assay addresses Signal transducer and activator of transcription 3 (Homo sapiens, UniProt P40763). Put plainly: Inhibition of IL-6-induced STAT3 pathway in human HepG2 cells by luciferase reporter gene assay. On the technique in general: Reporter assays use an easily measured gene product as a stand-in for the process of interest.
As to `NS(=O)(=O)c1ccc(NCc2cc(Cl)ccc2OCc2ccccc2)cc1`, 24.3 µM corresponded to half-maximal inhibition (IC50). The result for `OCCNCc1cc(Br)ccc1OCc1ccc(Cl)cc1` reads 59.9 µM; that for `Oc1ccc(NCc2cc(Cl)ccc2OCc2ccc(Cl)cc2)cc1`, 26.7 µM.
